Experimental data: patent US10844077B2, “Thiazolyl-containing compounds for treating proliferative diseases” (Dana-Farber Cancer Institute, Inc., priority 2014, dated 2020)
Read-outs that look alike come from different tables or passages of the source.

Assays:
Type in all cases: binding
broad panel of kinases [1] = target: broad panel of kinases (Homo sapiens, UniProt P42336, C420R); details: PIK3CA(C420R); 1 μM
broad panel of kinases [2] = target: broad panel of kinases (Homo sapiens, UniProt P42336, M1043I); details: PIK3CA(M1043I); 1 μM
broad panel of kinases [3] = target: broad panel of kinases (Homo sapiens, UniProt P49336); details: CDK8; 1 μM
broad panel of kinases [4] = target: broad panel of kinases (Homo sapiens, UniProt O00750); details: PIK3C2B; 1 μM
broad panel of kinases [5] = target: broad panel of kinases (Homo sapiens, UniProt Q86Y07); details: VRK2; 1 μM
broad panel of kinases [6] = target: broad panel of kinases (Homo sapiens, UniProt Q15835); details: GRK1; 1 μM
broad panel of kinases [7] = target: broad panel of kinases (Homo sapiens, UniProt P35916); details: FLT4; 1 μM
Chain of broad panel of kinases (Homo sapiens, UniProt P35916) (P35916 25-1363 limits assumed): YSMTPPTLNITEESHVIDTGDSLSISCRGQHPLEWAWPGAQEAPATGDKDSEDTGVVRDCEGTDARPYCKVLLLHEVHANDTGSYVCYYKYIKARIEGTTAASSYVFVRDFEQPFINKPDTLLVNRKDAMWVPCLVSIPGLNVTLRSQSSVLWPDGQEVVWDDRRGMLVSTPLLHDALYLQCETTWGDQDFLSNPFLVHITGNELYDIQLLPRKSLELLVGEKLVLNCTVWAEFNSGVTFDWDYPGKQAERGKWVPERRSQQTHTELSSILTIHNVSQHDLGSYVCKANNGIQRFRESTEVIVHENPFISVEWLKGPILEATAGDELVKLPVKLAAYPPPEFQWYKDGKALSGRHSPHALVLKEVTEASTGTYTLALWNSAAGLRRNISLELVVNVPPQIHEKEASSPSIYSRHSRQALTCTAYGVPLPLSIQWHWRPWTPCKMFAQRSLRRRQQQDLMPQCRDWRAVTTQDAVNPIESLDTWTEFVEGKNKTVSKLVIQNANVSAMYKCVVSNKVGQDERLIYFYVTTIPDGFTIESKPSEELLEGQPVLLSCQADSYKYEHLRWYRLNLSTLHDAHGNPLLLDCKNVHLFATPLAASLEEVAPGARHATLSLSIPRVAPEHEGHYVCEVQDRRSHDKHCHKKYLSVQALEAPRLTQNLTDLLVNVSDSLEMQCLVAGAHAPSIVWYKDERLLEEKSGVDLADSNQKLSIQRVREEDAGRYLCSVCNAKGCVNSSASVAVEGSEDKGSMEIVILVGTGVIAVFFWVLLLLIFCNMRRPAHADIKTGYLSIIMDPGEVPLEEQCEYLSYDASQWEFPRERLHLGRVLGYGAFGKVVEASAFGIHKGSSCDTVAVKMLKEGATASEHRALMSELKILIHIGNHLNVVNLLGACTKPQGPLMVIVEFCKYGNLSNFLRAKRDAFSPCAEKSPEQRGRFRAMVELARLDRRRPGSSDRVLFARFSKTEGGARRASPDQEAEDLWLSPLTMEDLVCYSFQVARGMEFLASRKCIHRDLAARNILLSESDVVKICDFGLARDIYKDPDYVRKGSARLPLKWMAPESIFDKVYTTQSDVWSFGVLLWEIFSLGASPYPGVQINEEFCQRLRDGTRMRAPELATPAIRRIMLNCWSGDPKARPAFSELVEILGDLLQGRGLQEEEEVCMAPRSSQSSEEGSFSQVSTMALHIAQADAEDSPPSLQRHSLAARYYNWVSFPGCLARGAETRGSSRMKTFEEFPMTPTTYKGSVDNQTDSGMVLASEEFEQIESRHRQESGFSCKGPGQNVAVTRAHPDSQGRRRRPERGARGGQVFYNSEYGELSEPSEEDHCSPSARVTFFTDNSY

broad panel of kinases [8] = target: broad panel of kinases (Homo sapiens, UniProt P80192); details: MLK1; 1 μM
broad panel of kinases [9] = target: broad panel of kinases (Homo sapiens, UniProt Q96GD4); details: AURKB; 1 μM
broad panel of kinases [10] = target: broad panel of kinases (Homo sapiens, UniProt Q9UHD2); details: TBK1; 1 μM
broad panel of kinases [11] = target: broad panel of kinases (Homo sapiens, UniProt Q6DT37); details: DMPK2; 1 μM
broad panel of kinases [12] = target: broad panel of kinases (Plasmodium falciparum, UniProt P61075)
broad panel of kinases [13] = target: broad panel of kinases (Homo sapiens, UniProt Q7L7X3); details: TAOK1; 1 μM
broad panel of kinases [14] = target: broad panel of kinases (Homo sapiens, UniProt P11309); details: P1M1 (PIM1); 1 μM
broad panel of kinases [15] = target: broad panel of kinases (Homo sapiens, UniProt P48736); details: PIK3CG; 1 μM
broad panel of kinases [16] = target: broad panel of kinases (Homo sapiens, UniProt P42336, E545K); details: PIK3CA(E545K); 1 μM
broad panel of kinases [17] = target: broad panel of kinases (Homo sapiens, UniProt P17948); details: FLT1; 1 μM
broad panel of kinases [18] = details: 1 μM
broad panel of kinases [19] = target: broad panel of kinases (Homo sapiens, UniProt P07949, M918T); details: RET(M918T); 1 μM
broad panel of kinases [20] = target: broad panel of kinases (Homo sapiens, UniProt Q9C098); details: DCAMKL3; 1 μM
broad panel of kinases [21] = target: broad panel of kinases (Homo sapiens, UniProt P08069); details: IGF1R; 1 μM
Chain of broad panel of kinases (Homo sapiens, UniProt P08069) (P08069 31-736 limits assumed): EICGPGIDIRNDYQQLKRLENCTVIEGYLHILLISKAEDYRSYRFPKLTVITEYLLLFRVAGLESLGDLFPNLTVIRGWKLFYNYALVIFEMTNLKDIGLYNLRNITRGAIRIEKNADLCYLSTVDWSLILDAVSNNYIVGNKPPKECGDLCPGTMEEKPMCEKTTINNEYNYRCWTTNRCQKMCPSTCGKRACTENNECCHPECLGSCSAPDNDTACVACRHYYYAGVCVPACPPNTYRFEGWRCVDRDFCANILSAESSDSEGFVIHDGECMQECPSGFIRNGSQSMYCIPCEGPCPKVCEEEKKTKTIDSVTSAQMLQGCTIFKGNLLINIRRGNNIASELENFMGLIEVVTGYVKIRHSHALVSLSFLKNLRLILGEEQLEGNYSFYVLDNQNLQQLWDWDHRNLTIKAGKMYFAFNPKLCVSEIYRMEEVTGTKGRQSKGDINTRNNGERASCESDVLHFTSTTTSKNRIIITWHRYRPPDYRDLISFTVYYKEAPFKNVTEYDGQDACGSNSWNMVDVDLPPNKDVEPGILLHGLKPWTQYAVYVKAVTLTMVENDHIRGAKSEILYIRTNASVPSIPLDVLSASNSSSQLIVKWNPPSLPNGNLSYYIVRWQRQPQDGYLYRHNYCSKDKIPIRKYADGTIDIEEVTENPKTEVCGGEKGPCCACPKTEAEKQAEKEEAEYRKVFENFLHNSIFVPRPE
Chain of broad panel of kinases (Homo sapiens, UniProt P08069) (P08069 741-1367 limits assumed): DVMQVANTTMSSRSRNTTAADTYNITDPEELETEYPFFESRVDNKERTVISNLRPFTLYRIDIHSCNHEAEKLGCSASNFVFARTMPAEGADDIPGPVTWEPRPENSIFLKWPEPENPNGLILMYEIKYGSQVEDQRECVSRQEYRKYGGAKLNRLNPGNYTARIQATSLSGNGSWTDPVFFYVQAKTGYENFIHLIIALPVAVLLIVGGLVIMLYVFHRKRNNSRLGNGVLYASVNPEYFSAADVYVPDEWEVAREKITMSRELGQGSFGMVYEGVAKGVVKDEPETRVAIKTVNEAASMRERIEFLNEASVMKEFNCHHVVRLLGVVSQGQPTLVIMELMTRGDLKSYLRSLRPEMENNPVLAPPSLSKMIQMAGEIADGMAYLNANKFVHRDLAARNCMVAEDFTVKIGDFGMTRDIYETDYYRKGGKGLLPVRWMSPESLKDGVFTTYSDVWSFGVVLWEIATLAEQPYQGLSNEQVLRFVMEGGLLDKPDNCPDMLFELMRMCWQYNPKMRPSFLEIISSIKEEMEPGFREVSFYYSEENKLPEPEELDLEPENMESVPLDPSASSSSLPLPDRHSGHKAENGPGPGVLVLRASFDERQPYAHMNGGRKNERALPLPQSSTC

broad panel of kinases [22] = target: broad panel of kinases (Homo sapiens, UniProt O94921); details: PFTK1; 1 μM
broad panel of kinases [23] = target: broad panel of kinases (Homo sapiens, UniProt P53671); details: LIMK2; 1 μM
broad panel of kinases [24] = target: broad panel of kinases (Homo sapiens, UniProt P28482); details: ERK2; 1 μM
Chain of broad panel of kinases (Homo sapiens, UniProt P28482) (P28482 2-360 limits assumed): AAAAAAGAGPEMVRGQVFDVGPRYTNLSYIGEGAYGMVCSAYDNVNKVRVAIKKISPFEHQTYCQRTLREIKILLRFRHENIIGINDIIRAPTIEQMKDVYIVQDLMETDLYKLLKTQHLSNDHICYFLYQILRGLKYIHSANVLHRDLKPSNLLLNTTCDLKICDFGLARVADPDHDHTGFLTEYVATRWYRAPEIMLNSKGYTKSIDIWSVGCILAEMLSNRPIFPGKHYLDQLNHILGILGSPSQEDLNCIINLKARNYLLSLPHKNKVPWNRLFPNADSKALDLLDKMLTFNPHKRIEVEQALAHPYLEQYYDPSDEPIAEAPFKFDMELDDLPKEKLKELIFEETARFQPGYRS

broad panel of kinases [25] = target: broad panel of kinases (Homo sapiens, UniProt P17612); details: PKAC-alpha; 1 μM
broad panel of kinases [26] = target: broad panel of kinases (Homo sapiens, UniProt P36888); details: 1 μM
Chain of broad panel of kinases (Homo sapiens, UniProt P36888) (P36888 27-993 limits assumed): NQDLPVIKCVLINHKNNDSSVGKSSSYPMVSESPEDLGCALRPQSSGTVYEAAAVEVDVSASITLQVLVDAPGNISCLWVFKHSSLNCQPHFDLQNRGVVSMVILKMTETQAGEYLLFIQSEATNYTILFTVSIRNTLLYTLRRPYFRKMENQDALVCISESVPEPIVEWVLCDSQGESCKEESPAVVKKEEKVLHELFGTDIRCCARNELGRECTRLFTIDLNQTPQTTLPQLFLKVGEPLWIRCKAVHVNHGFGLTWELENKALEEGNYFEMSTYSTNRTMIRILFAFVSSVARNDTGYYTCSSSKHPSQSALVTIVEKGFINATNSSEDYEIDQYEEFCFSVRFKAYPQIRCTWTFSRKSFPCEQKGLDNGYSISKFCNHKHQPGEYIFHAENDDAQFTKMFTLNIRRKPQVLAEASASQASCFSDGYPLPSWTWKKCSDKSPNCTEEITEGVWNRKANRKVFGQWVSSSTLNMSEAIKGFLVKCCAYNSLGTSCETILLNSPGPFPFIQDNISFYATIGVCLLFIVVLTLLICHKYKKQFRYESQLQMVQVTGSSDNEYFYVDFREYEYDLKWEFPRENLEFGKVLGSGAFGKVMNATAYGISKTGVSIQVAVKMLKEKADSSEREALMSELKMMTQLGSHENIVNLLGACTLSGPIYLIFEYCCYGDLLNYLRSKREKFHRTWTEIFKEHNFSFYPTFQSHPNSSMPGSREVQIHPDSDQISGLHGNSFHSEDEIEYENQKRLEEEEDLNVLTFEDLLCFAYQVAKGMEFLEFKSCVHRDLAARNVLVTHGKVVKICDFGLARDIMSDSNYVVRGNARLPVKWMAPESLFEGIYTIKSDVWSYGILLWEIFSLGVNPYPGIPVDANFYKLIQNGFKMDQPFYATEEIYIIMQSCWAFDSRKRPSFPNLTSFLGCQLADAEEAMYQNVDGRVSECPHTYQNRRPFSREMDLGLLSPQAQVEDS

broad panel of kinases [27] = target: broad panel of kinases (Homo sapiens, UniProt Q8N4C8); details: MINK; 1 μM
broad panel of kinases [28] = target: broad panel of kinases (Homo sapiens, UniProt Q13882); details: BRK; 1 μM
broad panel of kinases [29] = target: broad panel of kinases (Homo sapiens, UniProt Q9Y463); details: DYRK1B; 1 μM
broad panel of kinases [30] = target: broad panel of kinases (Homo sapiens, UniProt Q9BQI3); details: EIF2AK1; 1 μM
broad panel of kinases [31] = target: broad panel of kinases (Homo sapiens, UniProt P50613); details: CDK7; 1 μM
Chain of broad panel of kinases (Homo sapiens, UniProt P50613) (P50613 2-346 limits assumed): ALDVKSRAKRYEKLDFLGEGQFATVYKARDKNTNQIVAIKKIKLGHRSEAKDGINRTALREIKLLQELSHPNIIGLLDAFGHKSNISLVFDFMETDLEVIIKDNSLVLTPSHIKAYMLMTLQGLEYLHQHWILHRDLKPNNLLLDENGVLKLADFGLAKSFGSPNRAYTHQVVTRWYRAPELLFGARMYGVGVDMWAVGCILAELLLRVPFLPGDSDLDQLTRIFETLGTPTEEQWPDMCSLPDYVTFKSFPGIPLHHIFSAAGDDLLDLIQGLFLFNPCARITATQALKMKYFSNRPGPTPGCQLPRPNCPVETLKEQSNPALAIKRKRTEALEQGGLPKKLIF

broad panel of kinases [32] = target: broad panel of kinases (Homo sapiens, UniProt Q96PY6); details: NEK1; 1 μM
broad panel of kinases [33] = target: broad panel of kinases (Homo sapiens, UniProt P0C264); details: SgK110; 1 μM
broad panel of kinases [34] = target: broad panel of kinases (Homo sapiens, UniProt O95382); details: ASK2; 1 μM
broad panel of kinases [35] = target: broad panel of kinases (Homo sapiens, UniProt O14757); details: CHEK1; 1 μM
broad panel of kinases [36] = target: broad panel of kinases (Homo sapiens, UniProt P57078); details: RIPK4; 1 μM

Compound | percent of control binding remaining (lower = stronger binding) (broad panel of kinases [1]) [%] | percent of control binding remaining (lower = stronger binding) (broad panel of kinases [2]) [%] | percent of control binding remaining (lower = stronger binding) (broad panel of kinases [3]) [%] | percent of control binding remaining (lower = stronger binding) (broad panel of kinases [4]) [%] | percent of control binding remaining (lower = stronger binding) (broad panel of kinases [5]) [%] | percent of control binding remaining (lower = stronger binding) (broad panel of kinases [6]) [%] | percent of control binding remaining (lower = stronger binding) (broad panel of kinases [7]) [%] | percent of control binding remaining (lower = stronger binding) (broad panel of kinases [8]) [%] | percent of control binding remaining (lower = stronger binding) (broad panel of kinases [9]) [%] | percent of control binding remaining (lower = stronger binding) (broad panel of kinases [10]) [%] | percent of control binding remaining (lower = stronger binding) (broad panel of kinases [11]) [%] | % change compared to control (broad panel of kinases [12]) [%] | percent of control binding remaining (lower = stronger binding) (broad panel of kinases [13]) [%] | percent of control binding remaining (lower = stronger binding) (broad panel of kinases [14]) [%] | percent of control binding remaining (lower = stronger binding) (broad panel of kinases [15]) [%] | percent of control binding remaining (lower = stronger binding) (broad panel of kinases [16]) [%] | percent of control binding remaining (lower = stronger binding) (broad panel of kinases [17]) [%] | percent of control binding remaining (lower = stronger binding) (broad panel of kinases [18]; EGFR(L747-E749del, A750P)) [%] | percent of control binding remaining (lower = stronger binding) (broad panel of kinases [18]; EGFR(L747-S752del, P753S)) [%] | percent of control binding remaining (lower = stronger binding) (broad panel of kinases [18]; EGFR(L747-T751del, Sins)) [%] | further results
C=CC(=O)N1CC[C@H](Nc2nccc(Nc3ncc(C(=O)Nc4c(C)cccc4C)s3)n2)C1 [Example I-3] | 99 | 100 | 98 | 47 | 70 | 97 | 100 | 92 | 100 | 94 | 66 | 100 | 98 | 95 | 100 | 100 | 86 | 1.4 | 3.6 | 4.2 | percent of control binding remaining (lower = stronger binding) (broad panel of kinases [18]; FLT3(ITD)): 98%; percent of control binding remaining (lower = stronger binding) (broad panel of kinases [19]): 99%; percent of control binding remaining (lower = stronger binding) (broad panel of kinases [20]): 92%; percent of control binding remaining (lower = stronger binding) (broad panel of kinases [21]): 100%; percent of control binding remaining (lower = stronger binding) (broad panel of kinases [22]): 99%; percent of control binding remaining (lower = stronger binding) (broad panel of kinases [23]): 65%; percent of control binding remaining (lower = stronger binding) (broad panel of kinases [24]): 100%; percent of control binding remaining (lower = stronger binding) (broad panel of kinases [25]): 85%; percent of control binding remaining (lower = stronger binding) (broad panel of kinases [26]; FLT3-autoinhibited): 100%; percent of control binding remaining (lower = stronger binding) (broad panel of kinases [26]; FLT3): 84%; percent of control binding remaining (lower = stronger binding) (broad panel of kinases [27]): 66%; percent of control binding remaining (lower = stronger binding) (broad panel of kinases [28]): 9.3%; percent of control binding remaining (lower = stronger binding) (broad panel of kinases [29]): 74%; percent of control binding remaining (lower = stronger binding) (broad panel of kinases [30]): 97%; percent of control binding remaining (lower = stronger binding) (broad panel of kinases [31]): 94%; percent of control binding remaining (lower = stronger binding) (broad panel of kinases [32]): 85%; percent of control binding remaining (lower = stronger binding) (broad panel of kinases [33]): 95%; percent of control binding remaining (lower = stronger binding) (broad panel of kinases [34]): 98%; percent of control binding remaining (lower = stronger binding) (broad panel of kinases [35]): 84%; percent of control binding remaining (lower = stronger binding) (broad panel of kinases [36]): 100%
C=CC(=O)N1CC[C@H](Nc2nc(CN3CCOCC3)cc(Nc3ncc(C(=O)Nc4c(C)cccc4C)s3)n2)C1 [Example I-2] | 100 | 96 | 93 | 86 | 94 | 94 | 95 | 89 | 96 | 89 | 51 | 100 | 93 | 97 | 100 | 94 | 93 | 2.2 | 3.6 | 2 | percent of control binding remaining (lower = stronger binding) (broad panel of kinases [18]; FLT3(ITD)): 92%; percent of control binding remaining (lower = stronger binding) (broad panel of kinases [19]): 92%; percent of control binding remaining (lower = stronger binding) (broad panel of kinases [20]): 97%; percent of control binding remaining (lower = stronger binding) (broad panel of kinases [21]): 100%; percent of control binding remaining (lower = stronger binding) (broad panel of kinases [22]): 72%; percent of control binding remaining (lower = stronger binding) (broad panel of kinases [23]): 51%; percent of control binding remaining (lower = stronger binding) (broad panel of kinases [24]): 100%; percent of control binding remaining (lower = stronger binding) (broad panel of kinases [25]): 85%; percent of control binding remaining (lower = stronger binding) (broad panel of kinases [26]; FLT3-autoinhibited): 100%; percent of control binding remaining (lower = stronger binding) (broad panel of kinases [26]; FLT3): 100%; percent of control binding remaining (lower = stronger binding) (broad panel of kinases [27]): 71%; percent of control binding remaining (lower = stronger binding) (broad panel of kinases [28]): 1.6%; percent of control binding remaining (lower = stronger binding) (broad panel of kinases [29]): 94%; percent of control binding remaining (lower = stronger binding) (broad panel of kinases [30]): 100%; percent of control binding remaining (lower = stronger binding) (broad panel of kinases [31]): 94%; percent of control binding remaining (lower = stronger binding) (broad panel of kinases [32]): 88%; percent of control binding remaining (lower = stronger binding) (broad panel of kinases [33]): 59%; percent of control binding remaining (lower = stronger binding) (broad panel of kinases [34]): 92%; percent of control binding remaining (lower = stronger binding) (broad panel of kinases [35]): 88%; percent of control binding remaining (lower = stronger binding) (broad panel of kinases [36]): 95%
